Source: PMC13427755 (Nature Communications, 2026)
Where two headings read alike, the source gives them in different places. Where a SMILES comes first, the peptide text is derived from it.

What was measured:
participants with IPF = format: in vivo, human
Procedure: This was a Phase 1b, randomized, double-blind, placebo-controlled, dose escalation study conducted at 6 sites in the United States, United Kingdom, Germany, and Australia (ClinicalTrials.gov: NCT05954988).
The full study protocol and statistical analysis plan are provided as Supplementary Notes 1 and 2, respectively. The completed CONSORT checklist for reporting of this study is provided as Supplementary Note 3.
Randomization was performed by interactive response system. Participants, study staff, and sponsor personnel were blinded to treatment assignment throughout the study.
Safety and tolerability assessments were performed through treatment and follow-up and included evaluation of TEAEs, concomitant medications, physical examinations, vital signs, 12-lead ECGs, clinical laboratory assessments, spirometry, and cough symptoms using the validated LCQ[22] and a cough VAS. Spirometry was performed according to American Thoracic Society (ATS) / European Respiratory Society (ERS) Task Force guidelines[46] at all clinic visits, with assessments conducted both pre-and post-dose on study drug dosing days. Study staff monitored participants’ self-administration of the study drug (the morning dose) during on-site visits, and symptoms were monitored for at least 1h.
The primary endpoint was the incidence of TEAEs reported from Day 1 through follow-up. TEAEs were coded using MedDRA (Version 26.1) and graded using the National Cancer Institute Common Terminology for Adverse Events (CTCAE) Version 5. Safety analyses included all participants who received the study drug. […] Placebo participants in each cohort were pooled for safety and biomarker analyses. No secondary endpoints were specified.

[1] = system: surfactant protein D (SP-D); assay: SP-D in plasma, MSD-ECL assay; format: in vivo, human; details: for SP-D in plasma, Δ from baseline, median (IQR): Day 14 minus screening, N = 8; for SP-D in plasma, median difference vs placebo (Hodges-Lehmann): N = 8 vs pooled placebo N = 5
Procedure: Blood samples for biomarker assessments in PBMCs and platelet-rich plasma were collected prior to the initial dose and on day 14 following the last dose. Following optimization for detection of analytes in IPF matrices, meso-scale discovery electrochemiluminescence (MSD-ECL) assays were performed at BioAgylitix for SP-D (#K1519XR-2, MSD) in plasma and AKT/pAKT (#K15100D-1, MSD) in PBMCs according to manufacturer’s instructions.
(§1) Descriptive statistics are reported as medians with interquartile ranges (IQR). The Hodges-Lehmann estimator was used for the median difference between groups (treatment minus placebo), with approximate 90% confidence intervals (asymmetric, exact level varied slightly with small n). Cliff’s delta was calculated as effect size using the formula δ = (2U / (n1 × n2)) − 1, with thresholds: |δ | <0.3 small effect, 0.3–0.5 medium effect, >0.5 large effect. […] No adjustment for multiplicity was performed, as these were pre-specified, hypothesis-driven exploratory analyses. All biomarker statistical analyses were conducted using GraphPad Prism Version v10.0.

[2] = system: chemokine (C-X-C motif) ligand 7 (CXCL7); assay: CXCL7 ELISA in deep bronchial brushings (DBB); format: in vivo, human; details: for CXCL7 in DBB, Δ from baseline, median (IQR): Day 14 minus screening, N = 8; for CXCL7 in DBB, median difference vs placebo (Hodges-Lehmann): N = 8 vs pooled placebo N = 6
Source text: (§2) Bronchoscopists were instructed to obtain a total of 6 brushings from 3 of the basilar bronchial segments of the right lower lobe: the anterior basilar segment, the lateral basilar segment, and the posterior basilar segment. With the bronchoscope proximal to or within the orifice of the appropriate basilar segment, the brush sheath was to be passed out 5 cm beyond the subsegment orifice, and then the brush was fully extended an additional 1 cm for a total of 6 cm beyond the orifice of the subsegmental bronchus. At the desired depth, the sheath was to be gently pulled back and forward for 15 strokes to brush the small airways. The brushing process was repeated using any combination of the 3 basilar segments described above, at the discretion of the bronchoscopist, for a total of 6 six separate brush samples.
(§3) Protein isolation and preparation of DBB samples for ELISAs were performed as previously described[47] according to manufacturer’s instructions for COL1A1 (#ab210966, abcam), CXCL7 (#LS-F4967-1, LS Bio), GAL7 (#DY1339, R&D Systems), IL-11 (#DY218, R&D Systems), and TSLP (#DY1398, R&D Systems).
as §1

galectin-7 (GAL-7) = assay: GAL7 ELISA in deep bronchial brushings (DBB); format: in vivo, human; details: for GAL7 in DBB, Δ from baseline, median (IQR): Day 14 minus screening
Source text: as §2, §3, §1

interleukin 11 (IL-11) = assay: IL-11 ELISA in deep bronchial brushings (DBB); format: in vivo, human; details: for IL-11 in DBB, Δ from baseline, median (IQR): Day 14 minus screening
Source text: as §2, §3, §1

Healthy Adult Subjects = details: cited from earlier work
Procedure: Pivotal 28-day Good Laboratory Practice (GLP) toxicity studies were performed in rats and dogs. These studies were designed such that the high dose levels would achieve at least a 50-fold margin over the proposed high clinical dose as recommended in International Council for Harmonisation (ICH)-M3(R2) guidelines. […] These events were considered to be dose limiting and related to LTI-03. There was no evidence that the TEAEs in the 3 subjects described previously were secondary to an allergic response. In the 20 mg QD MAD cohorts there were mild decreases in FEV1 in two subjects that were not associated with TEAEs. These were not considered to be dose limiting. There were no serious adverse events (SAEs). All TEAEs were resolved 7 days after the treatment period. Further details can be ...

[3] = protocol, section 1.1.1.1; cited from earlier work
Source text: […]. "Antifibrotic therapy for idiopathic pulmonary fibrosis: time to treat." Respiratory research 20.1 (2019) ...

[4] = 5 mg/day (2.5 mg BID) inhaled, 14 days, IPF, N = 9
[5] = 10 mg/day (5 mg BID) inhaled, 14 days, IPF, N = 9

Compound: CC(C)[C@H](NC(=O)[C@@H](NC(=O)[C@H](Cc1ccccc1)NC(=O)[C@@H](NC(=O)[C@@H](NC(=O)[C@@H](N)Cc1ccccc1)[C@@H](C)O)[C@@H](C)O)[C@@H](C)O)C(=O)N[C@H](C(=O)O)[C@@H](C)O [LTI-03] (H-FTTFTVT-OH; N-terminus and C-terminus assumed)
- TEAE: Back pain (participants with IPF; [4]): 1 (11.1) n (%)
- TEAE: Body temperature increased (participants with IPF; [4]): 1 (11.1) n (%)
- TEAE: COVID-19 (participants with IPF; [4]): 1 (11.1) n (%)
- TEAE: Chest discomfort (participants with IPF; [4]): 1 (11.1) n (%)
- TEAE: Dysgeusia (participants with IPF; [4]): 1 (11.1) n (%)
- TEAE: Dyspnea, exertional (participants with IPF; [4]): 1 (11.1) n (%)
- TEAE: Fatigue (participants with IPF; [4]): 1 (11.1) n (%)
- TEAE: Hyperkaliemia (participants with IPF; [4]): 1 (11.1) n (%)
- TEAE: Ophthalmic migraine (participants with IPF; [4]): 1 (11.1) n (%)
- TEAE: Rhinorrhea (participants with IPF; [4]): 1 (11.1) n (%)
- TEAEs Grade 2 (participants with IPF; 5 mg/day (2.5 mg BID) inhaled, 14 days, IPF, N = 9, CTCAE v5): 1 (11.1) n (%)
- Serious TEAEs (participants with IPF; [5]): 1 (11.1) n (%)
- TEAE related to study drug: Dry Mouth (participants with IPF; [5]): 1 (11.1) n (%)
- TEAE related to study drug: Hypoesthesia oral (participants with IPF; [5]): 1 (11.1) n (%)
- TEAE related to study drug: Palpitations (participants with IPF; [5]): 1 (11.1) n (%)
- TEAE related to study drug: Throat Irritation (participants with IPF; [5]): 1 (11.1) n (%)
- TEAE: COVID-19 (participants with IPF; [5]): 0 n (%)
- TEAE: Cold sweat (participants with IPF; [5]): 1 (11.1) n (%)
- TEAE: Dry mouth (participants with IPF; [5]): 1 (11.1) n (%)
- TEAE: Hypoesthesia oral (participants with IPF; [5]): 1 (11.1) n (%)
- TEAE: Nasopharyngitis (participants with IPF; [5]): 1 (11.1) n (%)
- TEAE: Palpitations (participants with IPF; [5]): 1 (11.1) n (%)
- TEAE: Productive cough (participants with IPF; [5]): 1 (11.1) n (%)
- TEAE: Rhinorrhea (participants with IPF; [5]): 1 (11.1) n (%)
- TEAE: Throat irritation (participants with IPF; [5]): 1 (11.1) n (%)
- TEAE: Vertigo (participants with IPF; [5]): 1 (11.1) n (%)
- TEAE: Post procedural fever (participants with IPF; 10 mg/day (5 mg BID) inhaled, 14 days, IPF, N = 9, serious, Grade 2, unrelated): 1 (11.1) n (%)
- participants with TEAE cough (participants with IPF; in vivo): 44%
- TEAE: COVID-19 (participants with IPF; pooled 5 and 10 mg/day inhaled, 14 days, IPF, N = 18): 1 (5.6) n (%)
- SP-D in plasma, Δ from baseline, median (IQR) ([1]; 5 mg/day): 3290 pg/mL
- SP-D in plasma, median difference vs placebo (Hodges-Lehmann) ([1]; 5 mg/day, one-tailed Mann-Whitney p = 0.3108): 3428 pg/mL
- SP-D in plasma, Δ from baseline, median (IQR) ([1]; 10 mg/day): -3264 pg/mL
- SP-D in plasma, median difference vs placebo (Hodges-Lehmann) ([1]; 10 mg/day, one-tailed Mann-Whitney p = 0.1111): -8368 pg/mL
- decrease of plasma SP-D compared to placebo ([1]; 10 mg/day, baseline to Day 14, p = 0.1111, not statistically significant): 5%
- CXCL7 in DBB, Δ from baseline, median (IQR) ([2]; 5 mg/day): −100.2 ng/mg protein
- CXCL7 in DBB, median difference vs placebo (Hodges-Lehmann) ([2]; 5 mg/day, one-tailed Mann-Whitney p = 0.5): 8.265 ng/mg protein
- CXCL7 in DBB, Δ from baseline, median (IQR) ([2]; 10 mg/day): −1276.23 ng/mg protein
- CXCL7 in DBB, median difference vs placebo (Hodges-Lehmann) ([2]; 10 mg/day, one-tailed Mann-Whitney p = 0.0248): −1262 ng/mg protein
- GAL7 in DBB, Δ from baseline, median (IQR) (galectin-7 (GAL-7); 5 mg/day, N = 8): 250.8575 pg/mg protein
- GAL7 in DBB, median difference vs placebo (Hodges-Lehmann) (galectin-7 (GAL-7); 5 mg/day, N = 8 vs pooled placebo N = 6, one-tailed Mann-Whitney p = 0.0709): −4730 pg/mg protein
- GAL7 in DBB, Δ from baseline, median (IQR) (galectin-7 (GAL-7); 10 mg/day, N = 9): −726.395 pg/mg protein
- GAL7 in DBB, median difference vs placebo (Hodges-Lehmann) (galectin-7 (GAL-7); 10 mg/day, N = 9 vs pooled placebo N = 6, one-tailed Mann-Whitney p = 0.0332): −6048 pg/mg protein
- IL-11 in DBB, Δ from baseline, median (IQR) (interleukin 11 (IL-11); 5 mg/day, N = 8): −11.037 pg/mg protein
- IL-11 in DBB, median difference vs placebo (Hodges-Lehmann) (interleukin 11 (IL-11); 5 mg/day, N = 8 vs pooled placebo N = 6, one-tailed Mann-Whitney p = 0.0406): −21.71 pg/mg protein
- IL-11 in DBB, Δ from baseline, median (IQR) (interleukin 11 (IL-11); 10 mg/day, N = 9): −6.528 pg/mg protein
- IL-11 in DBB, median difference vs placebo (Hodges-Lehmann) (interleukin 11 (IL-11); 10 mg/day, N = 9 vs pooled placebo N = 6, one-tailed Mann-Whitney p = 0.044): −19.15 pg/mg protein
- tolerability, 3 lower dose MAD cohorts (Healthy Adult Subjects; healthy adults, 2.5 mg QD, 5 mg QD, 5 mg BID inhaled for up to 14 days, ref study LTI-03-1001): well tolerated
- TEAEs secondary to pulmonary airflow limitation, 40 mg QD MAD cohort (Healthy Adult Subjects; in vivo): dose limiting
- solubility in water [3]: limited solubility
